# System: SW480
# Test: Inhibition of Wnt/beta-catenin signaling pathway in human SW480 cells assessed as dvl1 protein expression at 10 uM after 12 hrs by Western blotting analysis relative to vehicle-treated control
smiles,measurement,value
COc1cc([C@H]2Oc3ccc(-c4cc(=O)c5c(O)cc(O)cc5o4)cc3O[C@@H]2CO)ccc1O (relative stereo),fold change (FC),1
